Results as given in publication PMC7672115 (Scientific Reports, 2020).
Read-outs that look alike come from different tables or passages of the source.

Experiments:
SARS-CoV-2 [1] = assay: microbe, parasite or virus in culture; assay type: cell-based; settings: for %Inhibition at 10 µM: purified compounds
SARS-CoV-2 [2] = assay: microbe, parasite or virus in culture; assay type: cell-based; settings: for IC50: read-out: IC50 (plaque reduction assay); for concentration with absolute inhibition of the infectious virion production: post-treatment approach, Vero E6, plaque assay
in vitro [3] = assay type: cell-based
Procedure: (§1) Cells were seeded on 96-well plates at 5 × 10^4 cells/well and treated with various concentrations of the extracts or purified compounds for 48 h. Cell viability was evaluated by an MTT colorimetric assay. In brief, the medium was replaced with MTT [3-(4,5-dimethylthiazol-2-yl)-2,5-diphenyltetrazolium bromide] (Sigma-Aldrich, USA) and incubated for 4 h at 37 °C in a humidified incubator with 5% CO2. The formazan crystal was dissolved with DMSO (Merck, Germany) and measured at a wavelength of 570 nm by EnVision Multilabel Reader (PerkinElmer, USA). Data was normalized versus the solvent control, and then CC50 values were calculated using GraphPad Prism 7.

SARS-CoV-2 [4] = assay: microbe, parasite or virus in culture; settings: Severe acute respiratory syndrome coronavirus 2, Vero C1008, 48 h, read-out: IC50 (virus inhibition, high-content imaging/IFA)
SARS-CoV-2 [5] = assay: microbe, parasite or virus in culture; assay type: cell-based; settings: Vero E6
SARS-CoV-2 [6] = settings: for SI (CC50/IC50): post-infection, Vero E6
SARS-CoV-2 [7] = settings: pre-entry, Vero E6
SARS-CoV-2 [8] = assay: microbe, parasite or virus in culture; settings: Severe acute respiratory syndrome coronavirus 2, Vero C1008, read-out: IC50 (virus inhibition, high-content imaging)
SARS-CoV-2 [9] = assay: Plaque reduction assay of viral output, pre-entry treatment, Vero E6 cells; assay type: cell-based
SARS-CoV-2 [10] = assay: microbe, parasite or virus in culture; assay type: cell-based
SARS-CoV-2 [11] = assay: microbe, parasite or virus in culture; assay type: cell-based; remark: listed apart in the source
[12] = system: HepG2, imHC, HK-2, SH-SY5Y, Caco-2; assay: Cell viability assay (MTT) in various human cell types; assay type: cell-based; settings: 0 - 100 µM, 48 h
[13] = Cell viability assay (MTT) in Calu-3 cells; settings: human
in vitro [14] = settings: human
Vero E6 cells = assay: in vitro; assay type: cell-based; settings: Vero E6, post-infection treatment setting, 48 h
Procedure: as §1

[15] = Severe acute respiratory syndrome coronavirus 2, Vero C1008, 48 h
[16] = Vero E6, post-infection treatment setting, 48 h, read-out: CC50
[17] = Severe acute respiratory syndrome coronavirus 2, Vero C1008, purified compounds, single dose 10 µM, Vero E6, SARS-CoV-2 25TCID50, read-out: %Inhibition at 10 µM
[18] = Severe acute respiratory syndrome coronavirus 2, Vero C1008, post-infection treatment, Vero E6, 48 h
[19] = single dose 10 µM, Vero E6, SARS-CoV-2 25TCID50
[20] = Vero E6, pre-entry treatment setting, read-out: CC50

CCCCC[C@H](O)CC(=O)CCc1ccc(O)c(OC)c1 [6-Gingerol]
inhibition at 10 µM (SARS-CoV-2 [1]; Severe acute respiratory syndrome coronavirus 2, Vero C1008, read-out: %Inhibition at 10 µM): 7.78% | inhibitory activity against SARS-CoV-2 infection (in words) (SARS-CoV-2 [1]; extract at 10 µg/mL, compound at 10 µM): mild effect | IC50 (SARS-CoV-2 [2]; [15]): 1.38 µM | CC50 at 48 h (in vitro [3]; [16]): > 100 µM | IC50 (SARS-CoV-2 [4]): > 100 µM

C=C1CC[C@@H]2[C@](C)(CO)[C@H](O)CC[C@@]2(C)[C@@H]1C/C=C1/C(=O)OC[C@H]1O [Andrographolide]
inhibition at 10 µM (SARS-CoV-2 [1]; [17]): 99.9% | %Inhibition at 10 µM (SARS-CoV-2 [1]; single dose 10 µM, Vero E6, SARS-CoV-2 25TCID50, listed as ECDD-NAD): 99.97% | IC50 (SARS-CoV-2 [2]; [18]): 0.28 µM | concentration with absolute inhibition of the infectious virion production (SARS-CoV-2 [2]): 12.5 µM | CC50 at 48 h (in vitro [3]; African green monkey, CC50): 27.8 µM | IC50 (SARS-CoV-2 [4]): 6.58 µM

CCCCCCC[C@H](O)CC(=O)CCc1ccc(O)c(OC)c1 [ECDD-DPM-N95, 8-Gingerol]
%Inhibition at 10 µM (SARS-CoV-2 [1]; [19]): 17.59%

CCCCCCCCC[C@H](O)CC(=O)CCc1ccc(O)c(OC)c1 [ECDD-DPM-N96, 10-Gingerol]
%Inhibition at 10 µM (SARS-CoV-2 [1]; [19]): 23.51%

CCCCC/C=C/C(=O)CCc1ccc(O)c(OC)c1 [ECDD-DPM-N97, 6-Shogaol]
%Inhibition at 10 µM (SARS-CoV-2 [1]; [19]): 12.17%

COc1c(O)cc2oc3cc(O)c(CC=C(C)C)c(O)c3c(=O)c2c1CC=C(C)C [ECDD-NAM, alpha-mangostin]
%Inhibition at 10 µM (SARS-CoV-2 [1]; [19]): 9.08%

CCN(CCO)CCCC(C)Nc1ccnc2cc(Cl)ccc12 (stereo not shown) [Hydroxychloroquine, reference compound]
IC50 (SARS-CoV-2 [2]; [18]): 0.282 µM | CC50 at 48 h (in vitro [3]; African green monkey, Vero E6, post-infection treatment setting, 48 h, read-out: CC50): > 100 µM | CC50 at 48 h (in vitro [3]; African green monkey, Vero E6, pre-infection phase setting, read-out: CC50): > 100 µM | CC50 at 48 h (in vitro [3]; [20]): > 100 µM | IC50 (SARS-CoV-2 [5]; Severe acute respiratory syndrome coronavirus 2, Vero C1008, pre-infection phase, read-out: IC50 (virus inhibition, high-content imaging)): 20.6 µM | SI (CC50/IC50) (SARS-CoV-2 [6]): > 19.68 | SI (CC50/IC50) (SARS-CoV-2 [7]): > 12.39 | IC50 (SARS-CoV-2 [4]): 5.08 µM | IC50 (SARS-CoV-2 [8]): 8.07 µM

CCCCCCCCC/C=C/C(=O)CCc1ccc(O)c(OC)c1 [MUC1775, 10-Shogaol]
%Inhibition at 10 µM (SARS-CoV-2 [1]; [19]): 5.7%

COc1cc(O)c(C(=O)[C@@H]2[C@H](CC=C(C)C)C(C)=CC[C@H]2c2ccccc2)c(O)c1 [Panduratin A]
inhibition at 10 µM (SARS-CoV-2 [1]; [17]): 99.9% | %Inhibition at 10 µM (SARS-CoV-2 [1]; single dose 10 µM, Vero E6, SARS-CoV-2 25TCID50, listed as ECDD-NPA): 99.97% | IC50 (SARS-CoV-2 [2]; [18]): 0.078 µM | concentration with absolute inhibition of the infectious virion production (SARS-CoV-2 [2]): 5 µM | CC50 at 48 h (in vitro [3]; [16]): 14.7 µM | CC50 at 48 h (in vitro [3]; [20]): 43.5 µM | IC50 (SARS-CoV-2 [9]; Severe acute respiratory syndrome coronavirus 2, Vero C1008, Vero E6): 7.62 µM | dose with absolute suppression of the infectious virion production (SARS-CoV-2 [9]; Vero E6, plaque assay): 50 µM | antiviral effect (in words) (SARS-CoV-2 [5]; cells treated with extract/compound before viral adsorption): did not exerted a dramatic antiviral effect | IC50 (SARS-CoV-2 [10]; Severe acute respiratory syndrome coronavirus 2, post-treatment, Calu-3, read-out: IC50 (virus inhibition, high-content imaging/IFA)): 2.04 µM | IC50 (SARS-CoV-2 [11]; Severe acute respiratory syndrome coronavirus 2, post-treatment, Calu-3, read-out: IC50 (plaque assay)): 0.53 µM | cytotoxicity at the therapeutic window (in words) [12]: no or minimal cytotoxicity | SI (CC50/IC50) (SARS-CoV-2 [6]): 18.16 | SI (CC50/IC50) (SARS-CoV-2 [7]): 8.20 | IC50 (SARS-CoV-2 [4]): 0.81 µM | IC50 (SARS-CoV-2 [8]): 5.3 µM | CC50 at 48 h [13]: 43.9 µM

CCC(CC)COC(=O)[C@H](C)N[P@](=O)(OC[C@H]1O[C@@](C#N)(c2ccc3c(N)ncnn23)[C@H](O)[C@@H]1O)Oc1ccccc1 [Remdesivir, reference compound]
IC50 (SARS-CoV-2 [2]; [15]): 2.65 µM | IC50 (SARS-CoV-2 [10]; Severe acute respiratory syndrome coronavirus 2, Calu-3, read-out: IC50 (virus inhibition, high-content imaging/IFA)): 0.043 µM | IC50 (SARS-CoV-2 [11]; Severe acute respiratory syndrome coronavirus 2, Calu-3, read-out: IC50 (plaque assay)): 0.086 µM | CC50 (in vitro [14]): 16 µM | IC50 (SARS-CoV-2 [4]): 2.71 µM

Ivermectin [reference compound]
CC50 (Vero E6 cells): 31.7 µM | IC50 (SARS-CoV-2 [6]; read-out: IC50 (virus inhibition, high-content imaging/IFA), post-infection treatment, Vero E6, 48 h): 12.7 µM
